Data on one compound can be found in publication PMC9628810 (Science (New York, N.Y.), 2022).

For one test, the target named is T1, NLP7 (GST-NLP7-8xHIS) (Arabidopsis thaliana, UniProt Q84TH9).
T1 sequence (Q84TH9 1-959): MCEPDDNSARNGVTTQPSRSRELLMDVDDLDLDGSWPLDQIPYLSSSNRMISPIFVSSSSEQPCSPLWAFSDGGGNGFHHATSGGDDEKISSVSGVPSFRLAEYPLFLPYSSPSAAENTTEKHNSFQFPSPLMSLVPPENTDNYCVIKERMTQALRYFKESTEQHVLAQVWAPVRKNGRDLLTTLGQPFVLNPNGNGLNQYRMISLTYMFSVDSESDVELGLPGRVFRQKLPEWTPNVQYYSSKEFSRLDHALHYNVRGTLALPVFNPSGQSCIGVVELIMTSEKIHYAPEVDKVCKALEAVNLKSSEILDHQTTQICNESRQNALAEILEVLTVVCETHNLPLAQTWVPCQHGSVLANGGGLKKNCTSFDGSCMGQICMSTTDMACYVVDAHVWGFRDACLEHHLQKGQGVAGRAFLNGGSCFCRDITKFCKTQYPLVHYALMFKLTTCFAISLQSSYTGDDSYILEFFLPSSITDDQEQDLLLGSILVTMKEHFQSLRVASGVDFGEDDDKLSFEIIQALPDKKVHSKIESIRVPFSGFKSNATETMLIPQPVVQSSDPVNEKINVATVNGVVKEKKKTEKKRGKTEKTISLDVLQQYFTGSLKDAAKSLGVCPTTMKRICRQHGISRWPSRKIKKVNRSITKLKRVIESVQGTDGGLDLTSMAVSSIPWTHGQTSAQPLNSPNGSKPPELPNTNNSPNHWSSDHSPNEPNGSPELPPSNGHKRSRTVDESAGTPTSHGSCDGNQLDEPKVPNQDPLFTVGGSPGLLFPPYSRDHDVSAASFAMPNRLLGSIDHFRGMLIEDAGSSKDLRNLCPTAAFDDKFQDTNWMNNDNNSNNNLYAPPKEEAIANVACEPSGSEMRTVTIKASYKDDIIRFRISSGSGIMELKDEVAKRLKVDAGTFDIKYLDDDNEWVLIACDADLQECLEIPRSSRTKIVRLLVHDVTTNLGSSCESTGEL
Nature of the test: microscale thermophoresis. It counts as binding.

Test [1] deals with T2, N-NLP7(1–581) (GST-N-NLP7-8xHIS) (Arabidopsis thaliana, UniProt Q84TH9).
T2 sequence (Q84TH9 1-581): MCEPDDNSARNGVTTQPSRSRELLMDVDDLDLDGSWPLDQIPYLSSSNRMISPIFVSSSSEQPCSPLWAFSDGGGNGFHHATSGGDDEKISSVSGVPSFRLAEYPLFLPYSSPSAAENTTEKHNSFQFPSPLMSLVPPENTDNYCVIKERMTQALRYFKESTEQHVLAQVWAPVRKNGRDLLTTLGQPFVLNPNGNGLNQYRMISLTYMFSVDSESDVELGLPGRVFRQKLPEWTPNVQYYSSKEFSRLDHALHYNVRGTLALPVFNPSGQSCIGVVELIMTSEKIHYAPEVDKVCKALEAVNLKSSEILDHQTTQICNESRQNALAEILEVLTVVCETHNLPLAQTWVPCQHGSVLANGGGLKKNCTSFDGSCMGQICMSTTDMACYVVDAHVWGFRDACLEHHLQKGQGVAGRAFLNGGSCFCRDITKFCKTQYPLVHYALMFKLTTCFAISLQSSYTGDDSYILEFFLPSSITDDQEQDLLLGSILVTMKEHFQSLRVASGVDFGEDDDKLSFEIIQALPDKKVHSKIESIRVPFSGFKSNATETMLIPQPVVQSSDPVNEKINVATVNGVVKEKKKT
Nature of the test: microscale thermophoresis. It counts as binding. For orientation: MST reads how a fluorescent partner responds to local heating, with and without ligand.

One may read the Kd as a measure of binding affinity in units of concentration. `O=[N+]([O-])O` [nitrate]: the Kd on NLP7 (GST-NLP7-8xHIS) was 52 ± 20 µM; in test [1] it was 86 ± 38 µM.
